Measurements from patent US20100152434A1, “Protein Kinase-binding Nucleosides and Associated Methods” (priority 2007, published 2010).

Experiments:
Assay in all cases: Ambit kinase phage display ATP-binding-site ligand binding assay
ALK6 = ALK6 (Homo sapiens, UniProt O00238); details: read-out: % Inhibition of binding to ATP-binding-site ligand
Excerpt: (§1) This assay is based on ligand-affinity/protein kinase phage display and was employed essentially as described by Fabian et. al [Nature Biotech. […] In this assay, protein kinases are cloned into T7 bacteriophage which express the kinase fusion proteins on the phage capsid. T7 kinase-tagged phage are then screened for binding to ATP-binding-site ligands that have been immobilized on a solid support. Phage are screened for binding to the anchored ligands both in the presence of test compound and in its absence (control). Elution of the bound phage by free ligand (ATP-binding site ligand that is not immobilized on a solid support) followed by determination of the phage titre provides a reliable measure of the ability of test compounds to block binding of target kinases to resin-bound ATP-binding-site ligands.
(§2) T7 kinase-tagged phage strains were grown in parallel in microtiter plates in a proprietary bacterial host derived from E. Coli strain BL21. E. Coli were grown to a log phase, infected with T7 kinase-tagged phage, and incubated while shaking at 32° C. until bacterial lysis (approx. 90 min). Lysates were centrifuged (6,000 g) and filtered (0.2 μm). […] The phage titre of the eluates was measured by quantitative PCR or by plaque assays. […]

CLK3 = CLK3 (Homo sapiens, UniProt P49761); details: read-out: percent inhibition of binding
Excerpt: (§3) In this assay, protein kinases are cloned into T7 bacteriophage which express the kinase fusion proteins on the phage capsid. T7 kinase-tagged phage are then screened for binding to ATP-binding-site ligands that have been immobilized on a solid support. Phage are screened for binding to the anchored ligands both in the presence of test compound and in its absence (control). Elution of the bound phage by free ligand (ATP-binding site ligand that is not immobilized on a solid support) followed by determination of the phage titre provides a reliable measure of the ability of test compounds to block binding of target kinases to resin-bound ATP-binding-site ligands.
(§4) T7 kinase-tagged phage strains were grown in parallel in microtiter plates in a proprietary bacterial host derived from E. Coli strain BL21. E. Coli were grown to a log phase, infected with T7 kinase-tagged phage, and incubated while shaking at 32° C. until bacterial lysis (approx. 90 min). Lysates were centrifuged (6,000 g) and filtered (0.2 μm). Small molecule ATP-binding-site-specific ligands were anchored to solid supports via a two step process beginning with biotin conjugation followed by treatment of the biotin/small molecule conjugate with streptavidin-coated magnetic beads. […] The phage titre of the eluates was measured by quantitative PCR or by plaque assays. […]

BMPR2 = BMPR2 (Homo sapiens, UniProt Q13873); details: read-out: percent inhibition of binding
Excerpt: as §1, §2

EGFR = EGFR (Homo sapiens, UniProt P00533); details: read-out: % Inhibition of binding to ATP-binding-site ligand
Excerpt: as §1, §2

CDK5 = CDK5 (Homo sapiens, UniProt Q00535); details: read-out: percent inhibition of binding
Excerpt: as §3, §4

TXK = TXK (Homo sapiens, UniProt P42681); details: read-out: percent inhibition of binding
Excerpt: as §1, §2

CDK3 = CDK3 (Homo sapiens, UniProt Q00526); details: read-out: percent inhibition of binding
Excerpt: as §1, §2

MEK6 = MEK6 (Homo sapiens, UniProt P52564); details: read-out: percent inhibition of binding
Excerpt: as §1, §2

RPS6KA6(kin.Dom.2) = RPS6KA6(kin.Dom.2) (Homo sapiens, UniProt Q9UK32); details: read-out: percent inhibition of binding
Excerpt: as §1, §2

SNF1LK = SNF1LK (Homo sapiens, UniProt P57059); details: read-out: percent inhibition of binding
Excerpt: as §3, §4

HCK = HCK (Homo sapiens, UniProt P08631); details: read-out: percent inhibition of binding
Excerpt: as §1, §2

TYK2(Kin.Dom.1) = TYK2(Kin.Dom.1) (Homo sapiens, UniProt P29597); details: read-out: percent inhibition of binding
Excerpt: as §3, §4

EPHA5 = EPHA5 (Homo sapiens, UniProt P54756); details: read-out: percent inhibition of binding
Excerpt: as §3, §4

PIK3CG = PIK3CG (Homo sapiens, UniProt P48736); details: read-out: percent inhibition of binding
Excerpt: as §1, §2

IKK-α = IKK-α (Homo sapiens, UniProt O15111); details: read-out: % Inhibition of binding to ATP-binding-site ligand
Excerpt: as §3, §4

RPSGKA1 = RPSGKA1 (Homo sapiens, UniProt Q15418); details: read-out: % Inhibition of binding to ATP-binding-site ligand
Excerpt: as §3, §4

CSF1R = CSF1R (Homo sapiens, UniProt P07333); details: read-out: percent inhibition of binding
Excerpt: as §1, §2

CD2 L2 = CD2 L2 (Homo sapiens, UniProt Q9UQ88); details: read-out: percent inhibition of binding
Excerpt: as §3, §4

PDGFRB = PDGFRB (Homo sapiens, UniProt P09619); details: read-out: percent inhibition of binding
Excerpt: as §3, §4

ABL1(F317) = details: 10 μM
Excerpt: as §3, §4

FLT3 = FLT3 (Homo sapiens, UniProt P36888); details: read-out: % Inhibition of binding to ATP-binding-site ligand
Excerpt: as §1, §2

DAPK1 = DAPK1 (Homo sapiens, UniProt P53355); details: read-out: percent inhibition of binding
Excerpt: as §3, §4

PAK3 = PAK3 (Homo sapiens, UniProt O75914); details: read-out: % Inhibition of binding to ATP-binding-site ligand
Excerpt: as §1, §2

AURKB = AURKB (Homo sapiens, UniProt Q96GD4); details: read-out: percent inhibition of binding
Excerpt: as §3, §4

CAMKK2 = CAMKK2 (Homo sapiens, UniProt Q96RR4); details: read-out: percent inhibition of binding
Excerpt: as §3, §4

MINK = MINK (Homo sapiens, UniProt Q8N4C8); details: read-out: percent inhibition of binding
MINK, sequence (Q8N4C8 whole entry): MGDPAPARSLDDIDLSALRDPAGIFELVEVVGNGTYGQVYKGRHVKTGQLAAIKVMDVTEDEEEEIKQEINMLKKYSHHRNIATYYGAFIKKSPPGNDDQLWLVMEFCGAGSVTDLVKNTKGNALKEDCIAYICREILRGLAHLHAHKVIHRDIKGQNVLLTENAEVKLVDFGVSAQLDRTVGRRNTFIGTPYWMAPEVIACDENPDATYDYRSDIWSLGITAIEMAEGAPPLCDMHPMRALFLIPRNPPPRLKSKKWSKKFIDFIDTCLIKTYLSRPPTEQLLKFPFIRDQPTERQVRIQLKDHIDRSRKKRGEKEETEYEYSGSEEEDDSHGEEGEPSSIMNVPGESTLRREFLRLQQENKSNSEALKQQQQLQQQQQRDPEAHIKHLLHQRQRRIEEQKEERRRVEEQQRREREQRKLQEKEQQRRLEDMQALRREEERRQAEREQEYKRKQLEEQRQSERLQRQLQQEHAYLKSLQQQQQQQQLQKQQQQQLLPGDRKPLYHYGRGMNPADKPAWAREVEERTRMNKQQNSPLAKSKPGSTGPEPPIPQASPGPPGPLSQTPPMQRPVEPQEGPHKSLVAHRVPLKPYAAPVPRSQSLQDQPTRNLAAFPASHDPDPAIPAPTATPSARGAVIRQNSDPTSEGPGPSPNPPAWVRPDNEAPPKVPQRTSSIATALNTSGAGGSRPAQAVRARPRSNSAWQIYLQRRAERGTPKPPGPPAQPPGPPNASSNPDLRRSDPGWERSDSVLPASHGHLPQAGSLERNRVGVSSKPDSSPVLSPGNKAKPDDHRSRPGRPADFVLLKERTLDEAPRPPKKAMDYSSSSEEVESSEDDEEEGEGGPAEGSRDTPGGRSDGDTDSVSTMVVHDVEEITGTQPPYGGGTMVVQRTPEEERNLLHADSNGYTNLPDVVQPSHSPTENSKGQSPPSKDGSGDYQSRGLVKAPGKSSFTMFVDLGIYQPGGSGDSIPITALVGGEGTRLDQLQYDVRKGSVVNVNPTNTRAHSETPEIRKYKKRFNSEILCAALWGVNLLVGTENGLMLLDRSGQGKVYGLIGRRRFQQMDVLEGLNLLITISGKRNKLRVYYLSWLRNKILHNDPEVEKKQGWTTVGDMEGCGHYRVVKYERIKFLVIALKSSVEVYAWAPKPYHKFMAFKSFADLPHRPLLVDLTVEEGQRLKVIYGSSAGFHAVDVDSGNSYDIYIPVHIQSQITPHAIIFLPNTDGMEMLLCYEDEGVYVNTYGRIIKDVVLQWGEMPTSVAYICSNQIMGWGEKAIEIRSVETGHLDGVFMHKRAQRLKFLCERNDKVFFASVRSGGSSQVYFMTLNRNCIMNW
Excerpt: as §1, §2

AURKB, sequence (Q96GD4 whole entry): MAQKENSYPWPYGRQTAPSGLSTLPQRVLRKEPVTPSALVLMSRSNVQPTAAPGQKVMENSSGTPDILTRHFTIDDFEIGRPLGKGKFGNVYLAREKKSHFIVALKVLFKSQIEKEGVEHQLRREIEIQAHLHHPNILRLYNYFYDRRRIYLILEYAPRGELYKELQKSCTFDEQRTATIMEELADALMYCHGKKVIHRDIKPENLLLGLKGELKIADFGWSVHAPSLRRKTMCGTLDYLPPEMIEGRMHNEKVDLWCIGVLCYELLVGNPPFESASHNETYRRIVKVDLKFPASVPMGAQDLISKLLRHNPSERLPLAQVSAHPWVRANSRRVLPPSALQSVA
HCK, sequence (P08631 whole entry, species assumed): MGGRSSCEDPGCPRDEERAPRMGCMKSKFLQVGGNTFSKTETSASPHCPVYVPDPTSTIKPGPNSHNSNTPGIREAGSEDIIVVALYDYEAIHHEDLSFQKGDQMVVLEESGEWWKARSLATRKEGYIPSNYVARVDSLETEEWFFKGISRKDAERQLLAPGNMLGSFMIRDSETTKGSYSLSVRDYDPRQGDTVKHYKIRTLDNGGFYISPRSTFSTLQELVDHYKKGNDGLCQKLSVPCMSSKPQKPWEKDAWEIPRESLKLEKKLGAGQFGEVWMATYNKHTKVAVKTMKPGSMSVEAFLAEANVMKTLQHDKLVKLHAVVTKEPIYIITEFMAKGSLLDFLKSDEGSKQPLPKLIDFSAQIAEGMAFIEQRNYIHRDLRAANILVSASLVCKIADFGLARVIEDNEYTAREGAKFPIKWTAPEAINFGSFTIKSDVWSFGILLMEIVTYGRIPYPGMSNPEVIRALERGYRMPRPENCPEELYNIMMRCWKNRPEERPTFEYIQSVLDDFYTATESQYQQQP
DAPK1, sequence (P53355 whole entry): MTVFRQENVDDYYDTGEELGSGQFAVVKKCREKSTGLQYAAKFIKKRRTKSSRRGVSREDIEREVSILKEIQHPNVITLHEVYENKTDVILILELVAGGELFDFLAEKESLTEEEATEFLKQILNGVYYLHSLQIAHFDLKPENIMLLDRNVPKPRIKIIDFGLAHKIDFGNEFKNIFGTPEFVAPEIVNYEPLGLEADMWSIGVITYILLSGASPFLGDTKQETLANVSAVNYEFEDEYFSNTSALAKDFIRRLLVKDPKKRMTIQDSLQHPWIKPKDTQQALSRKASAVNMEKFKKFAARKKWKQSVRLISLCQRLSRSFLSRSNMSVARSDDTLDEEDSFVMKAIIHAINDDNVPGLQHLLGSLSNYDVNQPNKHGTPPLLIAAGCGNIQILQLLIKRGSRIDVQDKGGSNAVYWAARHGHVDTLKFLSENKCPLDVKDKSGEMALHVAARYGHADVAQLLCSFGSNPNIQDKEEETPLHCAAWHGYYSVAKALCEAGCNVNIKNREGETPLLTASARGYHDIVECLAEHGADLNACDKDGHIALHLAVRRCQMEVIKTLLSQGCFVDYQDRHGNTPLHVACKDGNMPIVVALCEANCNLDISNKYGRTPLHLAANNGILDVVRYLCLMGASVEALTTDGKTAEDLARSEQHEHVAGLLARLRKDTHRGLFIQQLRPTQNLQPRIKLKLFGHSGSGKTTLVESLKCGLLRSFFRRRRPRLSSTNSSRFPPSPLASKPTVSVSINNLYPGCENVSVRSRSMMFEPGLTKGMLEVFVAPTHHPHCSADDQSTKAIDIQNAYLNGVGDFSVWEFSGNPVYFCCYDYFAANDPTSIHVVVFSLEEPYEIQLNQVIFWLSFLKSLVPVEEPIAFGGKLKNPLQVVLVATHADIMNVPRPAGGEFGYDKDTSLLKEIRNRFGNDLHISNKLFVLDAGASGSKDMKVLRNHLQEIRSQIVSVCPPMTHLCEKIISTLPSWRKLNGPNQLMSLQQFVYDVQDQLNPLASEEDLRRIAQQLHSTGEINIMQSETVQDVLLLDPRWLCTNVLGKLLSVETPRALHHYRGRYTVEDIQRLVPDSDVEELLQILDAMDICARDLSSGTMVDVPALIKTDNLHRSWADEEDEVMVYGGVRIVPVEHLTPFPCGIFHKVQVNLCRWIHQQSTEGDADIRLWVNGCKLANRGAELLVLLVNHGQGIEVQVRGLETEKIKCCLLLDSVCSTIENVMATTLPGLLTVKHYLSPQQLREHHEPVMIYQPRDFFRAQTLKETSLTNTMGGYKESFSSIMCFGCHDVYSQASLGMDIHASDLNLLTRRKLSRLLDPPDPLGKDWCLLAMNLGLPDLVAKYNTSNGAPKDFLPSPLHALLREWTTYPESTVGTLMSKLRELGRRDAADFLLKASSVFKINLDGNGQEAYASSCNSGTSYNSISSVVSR
TXK, sequence (P42681 whole entry): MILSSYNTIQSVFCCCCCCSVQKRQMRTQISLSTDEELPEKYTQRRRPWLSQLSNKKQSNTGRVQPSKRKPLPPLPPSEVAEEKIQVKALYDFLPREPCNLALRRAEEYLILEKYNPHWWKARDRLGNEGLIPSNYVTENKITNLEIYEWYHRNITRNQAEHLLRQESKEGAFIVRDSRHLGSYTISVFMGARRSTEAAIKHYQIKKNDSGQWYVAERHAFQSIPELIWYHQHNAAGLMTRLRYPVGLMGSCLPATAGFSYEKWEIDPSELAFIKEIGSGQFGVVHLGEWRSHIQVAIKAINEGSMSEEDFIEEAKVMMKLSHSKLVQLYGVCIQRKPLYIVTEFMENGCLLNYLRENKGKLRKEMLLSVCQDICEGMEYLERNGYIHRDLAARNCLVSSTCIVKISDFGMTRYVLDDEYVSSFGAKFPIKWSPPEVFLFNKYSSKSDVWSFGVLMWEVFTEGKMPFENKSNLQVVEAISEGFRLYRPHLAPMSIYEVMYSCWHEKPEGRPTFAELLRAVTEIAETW
MEK6, sequence (P52564 whole entry): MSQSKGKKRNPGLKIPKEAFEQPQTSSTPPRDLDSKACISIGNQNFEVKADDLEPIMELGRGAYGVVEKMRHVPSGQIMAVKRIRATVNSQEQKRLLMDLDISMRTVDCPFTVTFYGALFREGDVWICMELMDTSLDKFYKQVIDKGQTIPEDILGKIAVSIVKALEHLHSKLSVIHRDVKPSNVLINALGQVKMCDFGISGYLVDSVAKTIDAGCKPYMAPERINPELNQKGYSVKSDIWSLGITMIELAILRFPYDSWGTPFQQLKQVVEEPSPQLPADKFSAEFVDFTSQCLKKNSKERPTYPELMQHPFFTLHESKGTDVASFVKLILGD
CLK3, sequence (P49761 whole entry): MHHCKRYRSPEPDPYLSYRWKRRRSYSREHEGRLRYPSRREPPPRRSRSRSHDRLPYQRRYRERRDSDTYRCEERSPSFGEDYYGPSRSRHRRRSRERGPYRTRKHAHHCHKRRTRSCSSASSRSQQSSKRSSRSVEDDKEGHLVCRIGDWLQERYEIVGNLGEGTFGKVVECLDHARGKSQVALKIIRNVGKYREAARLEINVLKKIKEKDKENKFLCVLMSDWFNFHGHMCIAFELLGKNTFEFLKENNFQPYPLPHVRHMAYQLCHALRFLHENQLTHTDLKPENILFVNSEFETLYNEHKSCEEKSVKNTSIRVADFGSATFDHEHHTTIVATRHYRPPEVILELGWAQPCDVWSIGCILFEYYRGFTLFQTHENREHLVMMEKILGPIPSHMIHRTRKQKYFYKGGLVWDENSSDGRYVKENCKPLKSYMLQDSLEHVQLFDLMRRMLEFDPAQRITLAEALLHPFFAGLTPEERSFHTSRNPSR

CCOC(=O)C[C@@H]1C(O[Si](C)(C)C(C)(C)C)[C@H](n2cnc3c(NC(=O)Nc4ccccc4)ncnc32)O[C@@H]1CNC(=O)NC (some centres unmarked) [Compound 10]
inhibition at 10 µM (ALK6): 47% | inhibition at 10 µM (CLK3): 20 to 29% | inhibition at 10 µM (BMPR2): 20 to 29% | inhibition at 10 µM (EGFR): 30% | inhibition at 10 µM (CDK5): 20 to 29% | inhibition at 10 µM (TXK): 20 to 29% | inhibition at 10 µM (CDK3): 20 to 29% | inhibition at 10 µM (MEK6): 20 to 29% | inhibition at 10 µM (RPS6KA6(kin.Dom.2)): 20 to 29% | inhibition at 10 µM (SNF1LK): 20 to 29% | inhibition at 10 µM (HCK): 20 to 29% | inhibition at 10 µM (TYK2(Kin.Dom.1)): 20 to 29% | inhibition at 10 µM (EPHA5): 20 to 29% | inhibition at 10 µM (PIK3CG): 20 to 29% | inhibition at 10 µM (IKK-α): 37% | inhibition at 10 µM (RPSGKA1): 40% | inhibition at 10 µM (CSF1R): 20 to 29% | inhibition at 10 µM (CD2 L2): 20 to 29% | inhibition at 10 µM (PDGFRB): 20 to 29% | percent inhibition of binding (ABL1(F317)): 20-29% | inhibition at 10 µM (FLT3): 31% | inhibition at 10 µM (DAPK1): 20 to 29% | inhibition at 10 µM (PAK3): 33% | inhibition at 10 µM (AURKB): 20 to 29% | inhibition at 10 µM (CAMKK2): 20 to 29% | inhibition at 10 µM (MINK): 20 to 29%
